Format in all cases: cell-based
For one assay, the target named is T1, EGFR (HCC827 cells) (Homo sapiens, UniProt P00533, DEL746-750).
T1 construct: endogenous in cells; host or cells: HCC827
In words: EGFR degradation HTRF assay, HCC827 cells. Conditions: HCC827, 16h treatment; for Dmax: maximum percentage of degradation. In a few lines:
(§1)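 Cells treated 16 h at 37 °C, 5% CO2 in medium with 0.2% DMSO; top final concentration 10 uM, 5-fold dilution, 8 doses. Lysates read by HTRF (665/620 nm); degradation % versus DMSO high control, DC50 from four-parameter fit, Dmax as maximal degradation.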

Assay [1] deals with T2, EGFR L858R/T790M (H1975-clone #36, homozygous) (Homo sapiens, UniProt P00533, L858R/T790M).
T2 construct: designed to specifically target WT EGFR but preserve the L858R/T790M copy; host or cells: H1975-clone #36
In words: EGFR degradation HTRF assay, H1975-clone #36 cells. Conditions: H1975 #36, 16h treatment; for Dmax: NCI-H1975, maximum percentage of degradation. In a few lines: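 H1975 clone #36, made homozygous for L858R/T790M EGFR by knockout of the WT allele, treated 16 h at 37 °C with compound in 0.2% DMSO medium. Eight doses from 10 uM, 5-fold dilutions. EGFR measured by HTRF in lysates. DC50 and Dmax fitted against DMSO controls.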

The target in the next assay is T3, EGFR WT (BaF3 WT cells) (Homo sapiens, UniProt P00533).
T3 construct: expressed in transfected cells; host or cells: BaF3
In words: EGFR degradation HTRF assay, BaF3 WT cells. As for the experimental part: BaF3 WT(wild type), BaF3-LTC(L858R/T790M/C797S) and BaF3-DTC(Del19/T790M/C797S) cells are treated with compounds diluted in 0.2% DMSO cell culture medium and incubate for 16h, 37° C., 5% CO2, H1975-#36, H1975-#28, H1975-#23 and HCC827 cells are treated with compounds diluted in 0.2% DMSO cell culture medium on day 2, incubate for 16h, 37° C., 5% CO2.the final concentriation of compounds in all assay is start with 10 uM, 5-fold dilution, total 8 doses were included.
After 16h treatment, add HTRF lysis buffer to each well; seal the plate and incubate 1 hour at room temperature on a plate shaker; Once the cells are lysed, 16 μL of cell lysate are transferred to a PE 384-well HTRF detection plate; 4 μL of pre-mixed HTRF antibodies are added to each well; Cover the plate with a plate sealer, spin 1000 rpm for 1 min, Incubate overnight at room temperature; Read on BMG PheraStar with HTRF protocol (337 nm-665 nm-620 nm).
The inhibition (degradation) percentage of the compound was calculated by the following equation: Inhibition percentage of Compound=100-100×(Signal-low control)/(High control-low control), wherein signal=each test compound group
High control=Cell group with added DMSO and without compound, indicating microplate readings without EGFR degradation;
Dmax is the maximum percentage of inhibition (degradation).
The IC50 (DC50) value of a compound can be obtained by fitting the following equation
Y=Bottom+(TOP−Bottom)/(1+((IC50/X)^hillslope))
Wherein, X and Y are known values, and IC50, Hillslope, Top and Bottom are the parameters obtained by fitting with software. Y is the inhibition percentage (calculated from the equation), X is the concentration of the compound; IC50 is the concentration of the compound when the 50% inhibition is reached. The smaller the IC50 value is, the stronger the inhibitory ability of the compound is. Vice versa, the higher the IC50 value is, the weaker the inhibitory ability of the compound is; Hillslope represents the slope of the fitted curve, generally around 1*; Bottom represents the minimum value of the curve obtained by data fitting, which is generally 0%±20%; Top represents the maximum value of the curve obtained by data fitting, which is generally 100%±20%. The experimental data were fitted by calculating and analyzing with Dotmatics data analysis software.

The target in assay [2] is T4, EGFR L858R/T790M/C797S (BaF3-LTC cells) (Homo sapiens, UniProt P00533, C797S/L858R/T790M).
T4 construct: expressed in transfected cells; host or cells: BaF3
In words: EGFR degradation HTRF assay, BaF3-LTC cells. The settings on record: BaF3-LTC, 16h treatment; for Dmax: maximum percentage of degradation, read-out: LTC Dmax (%); for DC50: read-out: LTC DC50. In a few lines:
as §1

Assay [3] concerns EGFR Del19/T790M/C797S (BaF3-DTC cells). In words: EGFR degradation HTRF assay, BaF3-DTC cells. The settings on record: for DTC Dmax (%): maximum percentage of degradation. The gist of the method:
as §1

Setting [4] is: BaF3 WT, 16h treatment, maximum percentage of degradation, read-out: WT Dmax (%).
Setting [5] is: 16h treatment, read-out: DTC DC50.

Read-outs that look alike come from different tables or passages of the source. Bounds are passed on as bounds.

T4 sequence (P00533 25-1210 T790M/C797S/L858R): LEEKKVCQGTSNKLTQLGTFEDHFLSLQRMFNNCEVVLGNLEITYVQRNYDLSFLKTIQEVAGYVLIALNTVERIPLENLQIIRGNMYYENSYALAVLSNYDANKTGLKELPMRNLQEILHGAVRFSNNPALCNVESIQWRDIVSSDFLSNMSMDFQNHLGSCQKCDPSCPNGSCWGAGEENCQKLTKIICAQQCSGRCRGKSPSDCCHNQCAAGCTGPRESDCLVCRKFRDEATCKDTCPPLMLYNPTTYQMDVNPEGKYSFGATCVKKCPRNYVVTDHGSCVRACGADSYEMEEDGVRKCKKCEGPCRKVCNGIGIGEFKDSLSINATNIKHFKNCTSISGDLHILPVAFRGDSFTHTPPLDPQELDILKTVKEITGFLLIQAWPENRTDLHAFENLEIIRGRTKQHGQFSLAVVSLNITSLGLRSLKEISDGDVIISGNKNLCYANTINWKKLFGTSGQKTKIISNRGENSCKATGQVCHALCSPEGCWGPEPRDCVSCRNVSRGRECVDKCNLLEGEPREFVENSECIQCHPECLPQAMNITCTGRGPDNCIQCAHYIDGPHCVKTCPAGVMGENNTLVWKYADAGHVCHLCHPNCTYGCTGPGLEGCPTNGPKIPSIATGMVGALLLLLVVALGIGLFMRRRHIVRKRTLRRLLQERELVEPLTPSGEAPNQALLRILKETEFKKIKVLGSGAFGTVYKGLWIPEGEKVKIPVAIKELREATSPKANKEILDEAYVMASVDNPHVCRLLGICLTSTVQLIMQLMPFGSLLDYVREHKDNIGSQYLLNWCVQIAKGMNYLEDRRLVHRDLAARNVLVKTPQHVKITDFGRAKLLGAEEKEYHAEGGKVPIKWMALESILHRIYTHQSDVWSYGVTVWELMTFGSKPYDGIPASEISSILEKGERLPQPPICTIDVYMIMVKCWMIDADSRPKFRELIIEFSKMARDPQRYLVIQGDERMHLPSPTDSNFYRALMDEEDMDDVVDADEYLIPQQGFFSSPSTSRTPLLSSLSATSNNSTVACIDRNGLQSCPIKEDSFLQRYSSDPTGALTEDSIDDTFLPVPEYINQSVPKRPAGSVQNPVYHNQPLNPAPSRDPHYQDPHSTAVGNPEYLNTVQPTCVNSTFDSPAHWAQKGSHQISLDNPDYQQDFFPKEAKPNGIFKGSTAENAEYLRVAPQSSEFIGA
T3 sequence (P00533 25-1210): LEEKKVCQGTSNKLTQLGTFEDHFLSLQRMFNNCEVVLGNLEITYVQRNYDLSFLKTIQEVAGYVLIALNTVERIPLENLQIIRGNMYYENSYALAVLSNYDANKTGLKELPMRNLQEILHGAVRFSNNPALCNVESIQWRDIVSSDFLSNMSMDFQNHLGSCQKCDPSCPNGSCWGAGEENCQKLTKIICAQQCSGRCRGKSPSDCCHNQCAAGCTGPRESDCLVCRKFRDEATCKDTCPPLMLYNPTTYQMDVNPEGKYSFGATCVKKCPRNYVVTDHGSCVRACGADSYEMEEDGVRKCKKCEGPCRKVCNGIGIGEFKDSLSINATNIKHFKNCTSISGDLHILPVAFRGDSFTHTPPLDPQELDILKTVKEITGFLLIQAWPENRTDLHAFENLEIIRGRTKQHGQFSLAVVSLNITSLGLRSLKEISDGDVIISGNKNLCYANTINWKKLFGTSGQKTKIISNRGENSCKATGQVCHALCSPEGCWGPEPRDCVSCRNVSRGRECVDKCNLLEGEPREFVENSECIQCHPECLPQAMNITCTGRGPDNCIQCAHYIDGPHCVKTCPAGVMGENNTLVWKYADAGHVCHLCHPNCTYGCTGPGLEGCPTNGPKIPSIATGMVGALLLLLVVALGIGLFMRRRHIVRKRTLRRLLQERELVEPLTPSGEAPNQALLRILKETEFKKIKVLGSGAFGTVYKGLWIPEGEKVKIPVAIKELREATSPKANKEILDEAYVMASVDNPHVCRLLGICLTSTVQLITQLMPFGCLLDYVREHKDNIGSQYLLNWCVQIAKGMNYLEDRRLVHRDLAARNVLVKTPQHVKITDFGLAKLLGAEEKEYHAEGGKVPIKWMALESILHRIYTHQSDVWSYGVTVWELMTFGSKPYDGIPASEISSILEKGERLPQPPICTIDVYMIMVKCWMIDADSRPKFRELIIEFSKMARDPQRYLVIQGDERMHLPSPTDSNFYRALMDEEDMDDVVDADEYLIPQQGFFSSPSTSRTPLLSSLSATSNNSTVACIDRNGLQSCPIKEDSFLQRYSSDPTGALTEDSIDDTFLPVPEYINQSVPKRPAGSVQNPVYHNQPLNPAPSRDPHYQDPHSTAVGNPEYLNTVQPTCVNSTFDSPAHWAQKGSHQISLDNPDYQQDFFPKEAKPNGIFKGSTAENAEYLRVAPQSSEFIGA
T2 sequence (P00533 25-1210 T790M/L858R): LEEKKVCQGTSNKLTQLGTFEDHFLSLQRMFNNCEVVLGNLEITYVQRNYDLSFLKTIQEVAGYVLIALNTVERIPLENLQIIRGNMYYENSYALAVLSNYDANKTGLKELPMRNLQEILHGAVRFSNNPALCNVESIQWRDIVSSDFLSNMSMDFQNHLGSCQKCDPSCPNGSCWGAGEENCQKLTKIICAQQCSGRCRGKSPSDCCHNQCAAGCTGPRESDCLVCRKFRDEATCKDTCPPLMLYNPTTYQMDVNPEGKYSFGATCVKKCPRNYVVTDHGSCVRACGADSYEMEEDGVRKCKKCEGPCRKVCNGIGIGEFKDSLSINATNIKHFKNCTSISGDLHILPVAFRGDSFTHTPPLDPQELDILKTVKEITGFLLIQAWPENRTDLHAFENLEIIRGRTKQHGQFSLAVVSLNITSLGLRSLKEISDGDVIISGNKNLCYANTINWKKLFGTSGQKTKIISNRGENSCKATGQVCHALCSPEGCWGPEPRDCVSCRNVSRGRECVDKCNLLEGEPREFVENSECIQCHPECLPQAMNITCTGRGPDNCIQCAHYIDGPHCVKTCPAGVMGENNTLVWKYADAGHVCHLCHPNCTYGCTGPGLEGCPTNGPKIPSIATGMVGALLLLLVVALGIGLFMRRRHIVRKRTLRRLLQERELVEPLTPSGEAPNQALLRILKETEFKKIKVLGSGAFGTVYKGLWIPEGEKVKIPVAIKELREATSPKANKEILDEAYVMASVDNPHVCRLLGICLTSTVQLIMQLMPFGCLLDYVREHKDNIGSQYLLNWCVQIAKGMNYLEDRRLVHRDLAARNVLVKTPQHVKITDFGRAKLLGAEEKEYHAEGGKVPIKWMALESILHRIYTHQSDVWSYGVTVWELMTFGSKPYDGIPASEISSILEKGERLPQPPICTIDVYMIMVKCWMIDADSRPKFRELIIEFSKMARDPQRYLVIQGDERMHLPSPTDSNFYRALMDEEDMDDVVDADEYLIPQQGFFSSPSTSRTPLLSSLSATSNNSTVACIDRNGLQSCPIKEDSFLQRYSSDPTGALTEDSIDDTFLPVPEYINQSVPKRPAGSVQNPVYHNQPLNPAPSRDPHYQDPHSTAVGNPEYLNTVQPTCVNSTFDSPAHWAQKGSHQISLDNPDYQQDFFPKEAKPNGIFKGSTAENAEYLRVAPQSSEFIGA
T1 sequence (P00533 with tags, fused parts or gaps DEL746-750): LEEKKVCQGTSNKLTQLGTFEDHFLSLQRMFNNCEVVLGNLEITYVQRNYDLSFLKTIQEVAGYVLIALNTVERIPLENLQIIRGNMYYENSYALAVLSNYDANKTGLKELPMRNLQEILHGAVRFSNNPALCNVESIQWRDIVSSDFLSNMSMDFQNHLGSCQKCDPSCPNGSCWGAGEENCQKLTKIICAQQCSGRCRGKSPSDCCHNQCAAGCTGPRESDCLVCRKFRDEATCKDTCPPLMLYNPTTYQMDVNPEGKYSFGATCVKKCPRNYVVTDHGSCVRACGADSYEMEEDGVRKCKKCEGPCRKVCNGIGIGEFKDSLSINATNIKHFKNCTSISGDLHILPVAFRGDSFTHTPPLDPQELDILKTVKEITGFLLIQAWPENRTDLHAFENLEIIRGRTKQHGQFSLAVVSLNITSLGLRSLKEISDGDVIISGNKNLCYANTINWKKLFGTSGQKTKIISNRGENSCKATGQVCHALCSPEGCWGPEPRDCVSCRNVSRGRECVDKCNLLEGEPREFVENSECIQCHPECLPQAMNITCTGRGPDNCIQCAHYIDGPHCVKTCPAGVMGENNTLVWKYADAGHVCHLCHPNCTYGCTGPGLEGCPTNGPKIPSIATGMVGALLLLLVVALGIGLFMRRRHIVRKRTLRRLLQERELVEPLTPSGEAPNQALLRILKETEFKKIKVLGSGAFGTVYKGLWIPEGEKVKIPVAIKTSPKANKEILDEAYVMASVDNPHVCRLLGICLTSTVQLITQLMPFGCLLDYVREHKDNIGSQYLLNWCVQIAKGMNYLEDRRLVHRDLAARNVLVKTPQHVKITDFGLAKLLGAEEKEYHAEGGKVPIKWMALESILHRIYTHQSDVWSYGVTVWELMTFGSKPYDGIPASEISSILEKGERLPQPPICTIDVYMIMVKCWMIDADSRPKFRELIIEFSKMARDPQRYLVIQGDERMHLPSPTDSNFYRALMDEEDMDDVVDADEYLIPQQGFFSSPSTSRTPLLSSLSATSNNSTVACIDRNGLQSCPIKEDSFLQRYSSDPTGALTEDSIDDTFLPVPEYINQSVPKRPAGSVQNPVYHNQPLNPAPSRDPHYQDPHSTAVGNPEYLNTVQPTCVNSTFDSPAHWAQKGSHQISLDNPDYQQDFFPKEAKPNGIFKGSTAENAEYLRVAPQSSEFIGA

Take `CCc1cc(Nc2ncc(Br)c(Nc3ccc4nccnc4c3P(C)(C)=O)n2)c(OC)cc1N1CCC(N2CCN(CCc3ccc(C4CCC(=O)NC4=O)cc3)CC2)CC1` (centres unmarked) [Example 1, 3-(4-(2-(4-(1-(4-((5-bromo-4-((5-(dimethylphosphoryl)quinoxalin-6-yl)amino)pyrimidin-2-yl)amino)-2-ethyl-5-methoxyphenyl)piperidin-4-yl)piperazin-1-yl)ethyl)phenyl)piperidine-2,6-dione]: the DC50 on EGFR (HCC827 cells) is 3.6 nM; in assay [1], 7.22 nM; on EGFR WT (BaF3 WT cells) (BaF3 WT, 16h treatment) it was > 10 µM. For the same compound, the Dmax at EGFR (HCC827 cells) worked out at 86.9%; in assay [1] it was 60.8%; at EGFR WT (BaF3 WT cells) (setting [4]) it was 49.2%; in assay [2], 89.3%.

For the compound `CCc1cc(Nc2ncc(Br)c(Nc3ccc4nccnc4c3P(C)(C)=O)n2)c(OC)cc1N1CCC(N2CCN(CCc3ccc(C4CCC(=O)NC4=O)c(F)c3)CC2)CC1` (centres unmarked) [Example 5, 3-(4-(2-(4-(1-(4-((5-bromo-4-((5-(dimethylphosphoryl)quinoxalin-6-yl)amino)pyrimidin-2-yl)amino)-2-ethyl-5-methoxyphenyl)piperidin-4-yl)piperazin-1-yl)ethyl)-2-fluorophenyl)piperidine-2,6-dione], the “DTC Dmax (%)” value in assay [3] (16h treatment) is listed as 96.75%. Also, the DC50 in assay [3] (setting [5]) is 4.96 nM; on EGFR (HCC827 cells), 2.56 nM; in assay [1], 4.66 nM; on EGFR WT (BaF3 WT cells) (BaF3 WT, 16h treatment), > 10 µM; in assay [2] it was 13.1 nM. Further, the maximal degradation (Dmax) at EGFR (HCC827 cells) amounted to 83.9%; in assay [1] it was 84.1%; at EGFR WT (BaF3 WT cells) (setting [4]), 47.9%; in assay [2], 90.4%.

As to `CCc1cc(Nc2ncc(Br)c(Nc3ccc4nccnc4c3P(C)(C)=O)n2)c(OC)cc1N1CCC(N2CCN(CCCCCc3ccc(C4CCC(=O)NC4=O)cc3)CC2)CC1` (centres unmarked) [Example 7, 3-(4-(5-(4-(1-(4-((5-bromo-4-((5-(dimethylphosphoryl)quinoxalin-6-yl)amino)pyrimidin-2-yl)amino)-2-ethyl-5-methoxyphenyl)piperidin-4-yl)piperazin-1-yl)pentyl)phenyl)piperidine-2,6-dione], the “DTC Dmax (%)” value in assay [3] (16h treatment) worked out at 95.15%. Moreover, the DC50 is 18.2 nM in assay [3] (setting [5]); 3.95 nM at EGFR (HCC827 cells); > 156 nM in assay [1]; > 10 µM on EGFR WT (BaF3 WT cells) (BaF3 WT, 16h treatment); 36.4 nM in assay [2]. For the same compound, the greatest degradation seen (Dmax) on EGFR (HCC827 cells) is 74.3%; in assay [1] it was 49%; at EGFR WT (BaF3 WT cells) (setting [4]) it was 41.9%; in assay [2] it was 90.5%.

For the compound `CCc1cc(Nc2ncc(Br)c(Nc3ccc4nccnc4c3P(C)(C)=O)n2)c(OC)cc1N1CCC(N2CCN(CCC3CCN(c4ccc(C5CCC(=O)NC5=O)cc4)CC3)CC2)CC1` (centres unmarked) [Example 23, 3-(4-(4-(2-(4-(1-(4-((5-bromo-4-((5-(dimethylphosphoryl)quinoxalin-6-yl)amino)pyrimidin-2-yl)amino)-2-ethyl-5-methoxyphenyl)piperidin-4-yl)piperazin-1-yl)ethyl)piperidin-1-yl)phenyl)piperidine-2,6-dione], in assay [3] (16h treatment), the “DTC Dmax (%)” value is on record as 95.73%. In addition, the 50% degradation concentration (DC50) in assay [3] (setting [5]) was 13.3 nM; at EGFR (HCC827 cells), 2.05 nM; in assay [1], 14.1 nM; on EGFR WT (BaF3 WT cells) (BaF3 WT, 16h treatment), > 10 µM; in assay [2], 25.6 nM. Besides, the Dmax is 93.4% on EGFR (HCC827 cells), 65.5% in assay [1], 14.6% at EGFR WT (BaF3 WT cells) (setting [4]) and 89% in assay [2].

In the case of `CCc1cc(Nc2ncc(Br)c(Nc3ccc4nccnc4c3P(C)(C)=O)n2)c(OC)cc1N1CCC(N2CCN(CCC3CCN(c4ccc(C5CCC(=O)NC5=O)c(C#N)c4)CC3)CC2)CC1` (centres unmarked) [Example 34, 5-(4-(2-(4-(1-(4-((5-bromo-4-((5-(dimethylphosphoryl)quinoxalin-6-yl)amino)pyrimidin-2-yl)amino)-2-ethyl-5-methoxyphenyl)piperidin-4-yl)piperazin-1-yl)ethyl)piperidin-1-yl)-2-(2,6-dioxopiperidin-3-yl)benzonitrile], the “DTC Dmax (%)” value in assay [3] (16h treatment) was found to be 82.04%. Also, the DC50 in assay [3] (setting [5]) is 15.1 nM; at EGFR (HCC827 cells) it was 6.2 nM; in assay [1], 8.6 nM; at EGFR WT (BaF3 WT cells) (BaF3 WT, 16h treatment), > 10 µM; in assay [2], 21.6 nM. Further, the Dmax was 80.8% at EGFR (HCC827 cells), 71% in assay [1], 26.2% on EGFR WT (BaF3 WT cells) (setting [4]) and 81.2% in assay [2].

For the compound `CCc1cc(Nc2ncc(Br)c(Nc3ccc4nccnc4c3P(C)(C)=O)n2)c(OC)cc1N1CCC(N2CCN(CCc3ccc(NC4CCC(=O)NC4=O)cc3)CC2)CC1` (centres unmarked) [Example 48, 3-((4-(2-(4-(1-(4-((5-bromo-4-((5-(dimethylphosphoryl)quinoxalin-6-yl)amino)pyrimidin-2-yl)amino)-2-ethyl-5-methoxyphenyl)piperidin-4-yl)piperazin-1-yl)ethyl)phenyl)amino)piperidine-2,6-dione], the “DTC Dmax (%)” value in assay [3] (16h treatment) came to 92.6%. In addition, the half-maximal degradation concentration (DC50) turned out to be 7.6 nM in assay [3] (setting [5]); 4.42 nM on EGFR (HCC827 cells); 9.23 nM in assay [1]; 2.92 µM at EGFR WT (BaF3 WT cells) (BaF3 WT, 16h treatment); 24.3 nM in assay [2]. In addition, the maximal degradation (Dmax) worked out at 76.6% on EGFR (HCC827 cells), 64.5% in assay [1], 52.6% at EGFR WT (BaF3 WT cells) (setting [4]) and 90.4% in assay [2].

Regarding `CCc1cc(Nc2ncc(Br)c(Nc3ccc4nccnc4c3P(C)(C)=O)n2)c(OC)cc1N1CCC(N2CCN(C(=O)C3CCN(CC4CCN(c5ccc6c(c5)C(=O)N(C5CCC(=O)NC5=O)C6=O)CC4)CC3)CC2)CC1` (centres unmarked) [Example 63, 5-(4-((4-(4-(1-(4-((5-bromo-4-((5-(dimethylphosphoryl)quinoxalin-6-yl)amino)pyrimidin-2-yl)amino)-2-ethyl-5-methoxyphenyl)piperidin-4-yl)piperazine-1-carbonyl)piperidin-1-yl)methyl)piperidin-1-yl)-2-(2,6-dioxopiperidin-3-yl)isoindoline-1,3-dione], the “DTC Dmax (%)” value in assay [3] (16h treatment) is given as 52.42%. For the same compound, the half-maximal degradation concentration (DC50) in assay [3] (setting [5]) was 281 nM; at EGFR (HCC827 cells) it was 1.74 nM; on EGFR WT (BaF3 WT cells) (BaF3 WT, 16h treatment) it was > 10 µM; in assay [2] it was > 2000 nM. For the same compound, the figures for the Dmax (at EGFR (HCC827 cells); on EGFR WT (BaF3 WT cells) (setting [4]); in assay [2]) were 86.3%, 3.27% and 38.5%, respectively.

In the case of `CCc1cc(Nc2ncc(Br)c(Nc3ccc4nccnc4c3P(C)(C)=O)n2)c(OC)cc1N1CCC(N2CCN(CCN(C)c3ccc4c(c3)CN(C3CCC(=O)NC3=O)C4=O)CC2)CC1` (centres unmarked) [Example 71, 3-(5-((2-(4-(1-(4-((5-bromo-4-((5-(dimethylphosphoryl)quinoxalin-6-yl)amino)pyrimidin-2-yl)amino)-2-ethyl-5-methoxyphenyl)piperidin-4-yl)piperazin-1-yl)ethyl)(methyl)amino)-1-oxoisoindolin-2-yl)piperidine-2,6-dione], the “DTC Dmax (%)” value in assay [3] (16h treatment) turned out to be 81.19%. The DC50 in assay [3] (read-out: DTC DC50, 16h treatment) is 7.52 nM; on EGFR WT (BaF3 WT cells) (BaF3 WT, 16h treatment), > 10 µM; in assay [2], 11.5 nM. The maximal degradation (Dmax) on EGFR WT (BaF3 WT cells) (BaF3, read-out: WT Dmax (%)) was found to be 31.4%; in assay [2], 80%.

The values are drawn from US20230265116A1, “DEGRADATION OF (EGFR) BY CONJUGATION OF EGFR INHIBITORS WITH E3 LIGASE LIGAND AND METHODS OF USE” (BEIGENE, LTD., priority 2020, published 2023).
